According to BindingDB's records for doi:10.1016/j.bmc.2010.10.023 (Chugai Pharmaceutical, 2010):

Experiment: Antagonist activity at AR in human bicalutamide-resistant LNCAP cells assessed as inhibition of cell proliferation after 6 days

SMILES: CC1(C)C(=O)N(c2ccc(C#N)c(Cl)c2)C(=S)N1c1cccc(S(N)(=O)=O)c1 [3-[3-(3-Chloro-4-cyanophenyl)-5,5-dimethyl-4-oxo-2-thioxoimidazolidin-1-yl]benzenesulfonamide]
- IC50: 100 nM

SMILES: CC1(C)C(=O)N(c2ccc(C#N)c(Cl)c2)C(=S)N1CCCS(N)(=O)=O [3-[3-(3-Chloro-4-cyanophenyl)-5,5-dimethyl-4-oxo-2-thioxoimidazolidin-1-yl]propane-1-sulfonamide]
- IC50: 10 nM

SMILES: CC1(C)C(=O)N(c2ccc(C#N)c(C(F)(F)F)c2)C(=S)N1c1cccc(S(N)(=O)=O)c1 [3-[3-(4-Cyano-3-trifluoromethylphenyl)-5,5-dimethyl-4-oxo-2-thioxoimidazolidin-1-yl]benzenesulfonamide]
- IC50: 100 nM

SMILES: CC1(C)C(=O)N(c2ccc(C#N)c(C(F)(F)F)c2)C(=S)N1c1ccccc1 [4-(3-Phenyl-4,4-dimethyl-5-oxo-2-thioxoimidazolidin-1-yl)-2-trifluoromethylbenzonitrile]
- IC50: 100 nM

SMILES: CC1(C)C(=O)N(c2ccc(C#N)c(C(F)(F)F)c2)C(=S)N1c1ccnc(S(N)(=O)=O)c1 [4-[3-(4-Cyano-3-trifluoromethylphenyl)-5,5-dimethyl-4-oxo-2-thioxoimidazolidin-1-yl]pyridine-2-sulfonic acid amide]
- IC50: 80 nM

SMILES: CC1(C)C(=O)N(c2ccc(C#N)c(Cl)c2)C(=S)N1c1cncc(S(N)(=O)=O)c1 [5-[3-(3-Chloro-4-cyanophenyl)-5,5-dimethyl-4-oxo-2-thioxoimidazolidin-1-yl]pyridine-3-sulfonic acid amide]
- IC50: 50 nM

SMILES: CC1(C)C(=O)N(c2ccc(C#N)c(C(F)(F)F)c2)C(=S)N1c1cncc(S(N)(=O)=O)c1 [5-[3-(4-Cyano-3-trifluoromethylphenyl)-5,5-dimethyl-4-oxo-2-thioxoimidazolidin-1-yl]pyridine-3-sulfonic acid amide]
- IC50: 30 nM

SMILES: CC1(C)C(=O)N(c2ccc(C#N)c(Cl)c2)C(=S)N1c1cccc(S(N)(=O)=O)n1 [6-[3-(3-Chloro-4-cyanophenyl)-5,5-dimethyl-4-oxo-2-thioxoimidazolidin-1-yl]pyridine-2-sulfonic acid amide]
- IC50: 100 nM

SMILES: CC1(C)C(=O)N(c2ccc(C#N)c(C(F)(F)F)c2)C(=S)N1c1cccc(S(N)(=O)=O)n1 [6-[3-(4-Cyano-3-trifluoromethylphenyl)-5,5-dimethyl-4-oxo-2-thioxoimidazolidin-1-yl]pyridine-2-sulfonic acid amide]
- IC50: 100 nM
